Tests used:
[1] = literature value, or calculated with ACD/pKa for compounds not listed; cited from earlier work
[2] = Base generation temperature by differential scanning calorimetry; assay type: physicochemical; conditions: DSC, heated to 250° C. at 5° C./min in pressure-resistant capsule; peak temperature of lowest exothermic peak
Experimental: The base generation temperature may be measured, for example, by heating a compound to 250° C. at a rate of 5° C./minute in a pressure-resistant capsule, reading a peak temperature of an exothermic peak having the lowest temperature, and taking the peak temperature as a base generation temperature, using differential scanning calorimetry.
Using differential scanning calorimetry (Q2000, manufactured by TA), (A) a thermal base generator was heated to 250° C. at 5° C./min in a pressure-resistant capsule. The peak temperature of an exothermic peak having the lowest temperature was read to measure such a peak temperature as a base generation temperature.

SMILES | Base generation temperature [2] | pKa1 of anion [1]
O=C(C[N+]1=C2CCCN2CCC1)c1ccccc1.O=C([O-])C(=O)O [A-29] | 140 °C | 1.2
CCCCCCCCCCCC[N+](C)(C)CC(=O)c1ccccc1.O=C([O-])C(=O)O [A-21] | 150 °C | 1.2
CC(=O)c1ccc(N(CC(=O)O)CC(=O)O)cc1 [A-7] | 155 °C | –
CC[N+](CC)(CC)C(c1ccccc1)c1ccccc1.O=C([O-])C(=O)O [A-36] | 170 °C | 1.2
C[N+]1(C)CCCCC1.O=C([O-])C(=O)O [A-32] | 190 °C | 1.2
C1CCC2=[N+](CC1)CCCN2.O=C([O-])CCC(=O)O [A-12] | 150 °C | –
O=C(C[N+]1=C2CCCCCN2CCC1)c1ccccc1.O=C([O-])C(=O)O [A-28] | 140 °C | 1.2
O=C(O)CN(CC(=O)O)c1ccccc1 [A-1] | 145 °C | –
O=C(C[n+]1ccccc1)c1ccccc1.O=C([O-])C(=O)O [A-27] | 140 °C | 1.2
CCC(O)C[N+](C)(C)[N-]C(=O)c1ccccc1OC (stereo not drawn) [X-1, reference compound] | 80 °C | –
C[N+]1(CC(=O)c2ccccc2)CCCCC1.O=C([O-])C(=O)O [A-30] | 140 °C | 1.2
O=C(O)CNc1ccccc1 [X-6, reference compound] | Higher than 200 °C | –
C[n+]1ccccc1.O=C([O-])C(=O)O [A-37] | 180 °C | 1.2
CC(C)(c1ccc(N(CC(=O)O)CC(=O)O)cc1)c1ccc(N(CC(=O)O)CC(=O)O)cc1 [A-9] | 140 °C | –
CCCCCCCCCCCC[N+](C)(C)CC(=O)c1ccccc1.O=C([O-])/C=C\C(=O)O [A-18] | 150 °C | 1.9
CCN(CC)CC.O=C(O)CCC(=O)O [A-13] | 170 °C | –
O=C(O)CN(CC(=O)O)c1cc(C(F)(F)F)cc(C(F)(F)F)c1 [A-5] | 155 °C | –
CCCCCCCCCCCC[N+](C)(C)CC(=O)c1ccccc1.O=C([O-])CCC(=O)O [A-22] | 130 °C | 4.2
O=C(O)CN(CC(=O)O)c1ccc(C(F)(F)F)cc1 [A-6] | 155 °C | –
C1CCC2=[N+](CC1)CCCN2.O=C([O-])C(=O)O [A-34] | 80 °C | 1.2
C1CN2CCN1CC2.O=C(O)C(=O)O [A-33] | 70 °C | 1.2
CCCCCCCC[N+](C)(C)CC(=O)c1ccccc1.O=C([O-])/C=C\C(=O)O [A-39] | 150 °C | 1.9
O=C(C[N+]12CCN(CC1)CC2)c1ccccc1.O=C([O-])C(=O)O [A-31] | 140 °C | 1.2

Now from value to compound, other results behind:

Base generation temperature [2] | SMILES | pKa1 of anion [1]
145 °C | O=C(O)CN(CC(=O)O)c1ccc(Cc2ccc(N(CC(=O)O)CC(=O)O)cc2)cc1 [A-8] | –
150 °C | C[N+](C)(CC(=O)c1ccccc1)C1CCCCC1.O=C([O-])/C=C\C(=O)O [A-40] | 1.9
140 °C | Cc1ccc(N(CC(=O)O)CC(=O)O)cc1 [A-2] | –
150 °C | C[N+](C)(CC(=O)c1ccccc1)Cc1ccccc1.O=C([O-])/C=C\C(=O)O [A-41] | 1.9
130 °C | O=C(O)CN(CC(=O)Nc1ccccc1)c1ccccc1 [A-16] | –
Higher than 200 °C | C=C(C)C(=O)OC(CO)N(CC(=O)O)c1ccccc1 (stereo not drawn) [X-4, reference compound] | –
200 °C | Cc1ccc(NC(CC(=O)O)C(=O)O)cc1 (stereo not drawn) [A-10] | –
200 °C | O=C(O)CC(Nc1ccccc1)C(=O)O (stereo not drawn) [A-11] | –
Lower than 40 °C | C1CNC2=[N+](C1)CCCN2.O=C([O-])/C=C\C(=O)O [X-9, reference compound] | –
140 °C | CCCCCCCCCCCC[N+](C)(C)CC(=O)c1ccc2ccccc2c1.O=C([O-])/C=C\C(=O)O [A-23] | 1.9
Higher than 200 °C | C=Cc1ccc(NCC(=O)O)cc1 [X-5, reference compound] | –
140 °C | COc1ccc(N(CC(=O)O)CC(=O)O)cc1 [A-3] | –
150 °C | O=C(O)CN(CC(=O)O)c1ccc(-c2ccccc2)cc1 [A-4] | –
Higher than 200 °C | O=C(O)CN(CCN(CC(=O)O)CC(=O)O)CC(=O)O [X-8, reference compound] | –
Higher than 200 °C | CN(CC(=O)O)CC(=O)O [X-7, reference compound] | –
150 °C | CCCCC(CC)C[N+](C)(C)CC(=O)c1ccccc1.O=C([O-])/C=C\C(=O)O (stereo not drawn) [A-42] | 1.9
190 °C | C=CCN(CC(=O)O)CC(=O)O [A-17] | –
150 °C | CCCCCC[N+](C)(C)CC(=O)c1ccccc1.O=C([O-])/C=C\C(=O)O [A-38] | 1.9

From US20170101521A1, “THERMAL BASE GENERATOR, THERMOSETTING RESIN COMPOSITION, CURED FILM, CURED FILM MANUFACTURING METHOD, AND SEMICONDUCTOR DEVICE” (FUJIFILM Corporation, priority 2014, published 2017)
